Test results taken from ChEMBL document CHEMBL4507276 (2021).

How the values were obtained:
[1] = target: Protein kinase C theta type (Homo sapiens) (UniProt Q04759); conditions: Compound concentration 1000.0 nM
[2] = target: Beta-3 adrenergic receptor (Homo sapiens) (UniProt P13945); test: BETA3/HU Cerep selectivity data (BI); conditions: filed as antagonist, Compound concentration 20.0 uM
Caspase-3 (Homo sapiens) = Caspase-3 (Homo sapiens) (UniProt P42574); test: CASPASE-3 Cerep selectivity data (BI); conditions: Compound concentration 20.0 uM
[3] = target: Histamine H2 receptor (Homo sapiens) (UniProt P25021); test: H2/APT/HS Cerep selectivity data (BI); conditions: filed as antagonist, Compound concentration 20.0 uM
Homo sapiens = organism: Homo sapiens; test: HIV-1/H Cerep selectivity data (BI); conditions: Compound concentration 20.0 uM
[4] = target: Rod cGMP-specific 3',5'-cyclic phosphodiesterase subunit alpha (Bos taurus) (UniProt P11541); test: PDE6_CE Cerep selectivity data (BI); conditions: Compound concentration 20.0 uM
[5] = target: Sodium-dependent serotonin transporter (Homo sapiens) (UniProt P31645); test: 5HTTRANS/HU Eurofins-Panlabs selectivity data (BI); conditions: Compound concentration 10.0 uM
[6] = target: L-type Ca2+ channel (DHP site), Cav1.2 alpha-1C (Rattus norvegicus, UniProt P22002); test: CA+/DHPSI/RA Eurofins-Panlabs selectivity data (BI); conditions: compound concentration 10 uM, read-out: % Ctrl
[7] = target: Thyroid hormone receptor alpha (Rattus norvegicus) (UniProt P63059); test: THYROID HORM Eurofins-Panlabs selectivity data (BI); conditions: Compound concentration 10.0 uM
[8] = target: Neuropeptide Y receptor type 2 (Homo sapiens) (UniProt P49146); test: Y2/HU Eurofins-Panlabs selectivity data (BI); conditions: Compound concentration 10.0 uM
[9] = system: Tyrosine-protein kinase ABL1 (Homo sapiens), P00519 [G250E]; test: ABL1 G250E Invitrogen selectivity data (BI); conditions: Compound concentration 3.0 uM
[10] = target: RAC-alpha serine/threonine-protein kinase (Homo sapiens) (UniProt P31749); test: AKT1 Invitrogen selectivity data (BI); conditions: Compound concentration 3.0 uM
[11] = target: Tyrosine-protein kinase Blk (Homo sapiens) (UniProt P51451); test: BLK Invitrogen selectivity data (BI); conditions: Compound concentration 3.0 uM
[12] = system: Serine/threonine-protein kinase B-raf (Homo sapiens), P15056 [V600E]; test: BRAF V599E Invitrogen selectivity data (BI); conditions: Compound concentration 3.0 uM
[13] = target: Serine/threonine-protein kinase MRCK alpha (Homo sapiens) (UniProt Q5VT25); test: CDC42 BPA Invitrogen selectivity data (BI); conditions: Compound concentration 3.0 uM
[14] = target: Cyclin-dependent kinase 9 (Homo sapiens) (UniProt P50750); test: CDK9CYCLIN Invitrogen selectivity data (BI); conditions: Compound concentration 3.0 uM
[15] = target: Death-associated protein kinase 3 (Homo sapiens) (UniProt O43293); test: DAPK3 Invitrogen selectivity data (BI); conditions: Compound concentration 3.0 uM
[16] = target: Dual specificity tyrosine-phosphorylation-regulated kinase 3 (Homo sapiens) (UniProt O43781); test: DYRK3 Invitrogen selectivity data (BI); conditions: Compound concentration 3.0 uM
[17] = target: Epidermal growth factor receptor (Homo sapiens) (UniProt P00533); test: EGFR Invitrogen selectivity data (BI); conditions: Compound concentration 3.0 uM
[18] = target: T1, Inhibitor of nuclear factor kappa-B kinase subunit epsilon (Homo sapiens) (UniProt Q14164); test: IKBKE Invitrogen selectivity data (BI); conditions: Compound concentration 3.0 uM
T1 sequence (whole entry): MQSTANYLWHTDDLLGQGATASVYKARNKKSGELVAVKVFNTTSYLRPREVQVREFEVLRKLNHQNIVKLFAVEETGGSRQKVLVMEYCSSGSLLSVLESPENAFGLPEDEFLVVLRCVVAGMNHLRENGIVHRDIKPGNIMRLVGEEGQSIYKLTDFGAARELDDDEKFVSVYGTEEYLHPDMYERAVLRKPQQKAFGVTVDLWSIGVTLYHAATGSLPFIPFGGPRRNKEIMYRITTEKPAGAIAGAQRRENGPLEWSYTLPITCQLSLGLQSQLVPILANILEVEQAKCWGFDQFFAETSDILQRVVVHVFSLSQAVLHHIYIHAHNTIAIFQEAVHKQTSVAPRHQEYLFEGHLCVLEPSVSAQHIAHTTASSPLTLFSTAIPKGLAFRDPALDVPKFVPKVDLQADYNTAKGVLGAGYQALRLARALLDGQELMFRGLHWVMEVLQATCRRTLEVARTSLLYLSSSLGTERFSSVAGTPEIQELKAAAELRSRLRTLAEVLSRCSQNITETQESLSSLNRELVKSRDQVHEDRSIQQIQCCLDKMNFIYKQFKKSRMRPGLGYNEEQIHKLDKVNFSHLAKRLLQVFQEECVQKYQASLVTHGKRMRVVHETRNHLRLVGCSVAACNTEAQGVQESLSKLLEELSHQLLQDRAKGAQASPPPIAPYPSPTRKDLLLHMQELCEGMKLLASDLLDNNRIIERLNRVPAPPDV

[19] = target: Tyrosine-protein kinase JAK1 (Homo sapiens) (UniProt P23458); test: JAK1 Invitrogen selectivity data (BI); conditions: Compound concentration 3.0 uM
[20] = system: Leucine-rich repeat serine/threonine-protein kinase 2 (Homo sapiens), Q5S007 [G2019S]; test: LRRK2_G2019S Invitrogen selectivity data (BI); conditions: Compound concentration 3.0 uM
[21] = target: MAP kinase-interacting serine/threonine-protein kinase 1 (Homo sapiens) (UniProt Q9BUB5); test: MKNK1 Invitrogen selectivity data (BI); conditions: Compound concentration 3.0 uM
[22] = target: Myosin light chain kinase 2, skeletal/cardiac muscle (Homo sapiens) (UniProt Q9H1R3); test: MYLK2 Invitrogen selectivity data (BI); conditions: Compound concentration 3.0 uM
[23] = target: Serine/threonine-protein kinase PLK2 (Homo sapiens) (UniProt Q9NYY3); test: PLK2 Invitrogen selectivity data (BI); conditions: Compound concentration 3.0 uM
[24] = target: Rho-associated protein kinase 2 (Homo sapiens) (UniProt O75116); test: ROCK2 Invitrogen selectivity data (BI); conditions: Compound concentration 3.0 uM
[25] = target: Ribosomal protein S6 kinase alpha-2 (Homo sapiens) (UniProt Q15349); test: RPS6KA2 Invitrogen selectivity data (BI); conditions: Compound concentration 3.0 uM
[26] = target: Ribosomal protein S6 kinase alpha-5 (Homo sapiens) (UniProt O75582); test: RPS6KA5 Invitrogen selectivity data (BI); conditions: Compound concentration 3.0 uM
[27] = target: Proto-oncogene tyrosine-protein kinase Src (Homo sapiens) (UniProt P12931); test: SRC N1 Invitrogen selectivity data (BI); conditions: Compound concentration 3.0 uM
[28] = target: Serine/threonine-protein kinase 16 (Homo sapiens) (UniProt O75716); test: STK16 Invitrogen selectivity data (BI); conditions: Compound concentration 3.0 uM
[29] = target: Mitogen-activated protein kinase kinase kinase 20 (Homo sapiens) (UniProt Q9NYL2); test: ZAK Invitrogen selectivity data (BI); conditions: Compound concentration 3.0 uM

Chain of Death-associated protein kinase 3 (Homo sapiens) (O43293 whole entry, looked up): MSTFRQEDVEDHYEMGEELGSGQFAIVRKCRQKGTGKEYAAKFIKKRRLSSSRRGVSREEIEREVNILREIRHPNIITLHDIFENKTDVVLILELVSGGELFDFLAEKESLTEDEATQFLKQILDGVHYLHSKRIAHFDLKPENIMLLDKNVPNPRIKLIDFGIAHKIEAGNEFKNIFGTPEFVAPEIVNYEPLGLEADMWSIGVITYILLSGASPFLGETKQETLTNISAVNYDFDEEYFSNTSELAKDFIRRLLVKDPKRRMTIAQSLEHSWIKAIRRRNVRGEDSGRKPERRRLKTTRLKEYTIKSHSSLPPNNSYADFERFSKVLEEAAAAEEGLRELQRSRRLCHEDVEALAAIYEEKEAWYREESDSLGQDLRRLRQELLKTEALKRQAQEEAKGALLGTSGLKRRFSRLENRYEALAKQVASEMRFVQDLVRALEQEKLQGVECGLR
Chain of Sodium-dependent serotonin transporter (Homo sapiens) (P31645 whole entry, looked up): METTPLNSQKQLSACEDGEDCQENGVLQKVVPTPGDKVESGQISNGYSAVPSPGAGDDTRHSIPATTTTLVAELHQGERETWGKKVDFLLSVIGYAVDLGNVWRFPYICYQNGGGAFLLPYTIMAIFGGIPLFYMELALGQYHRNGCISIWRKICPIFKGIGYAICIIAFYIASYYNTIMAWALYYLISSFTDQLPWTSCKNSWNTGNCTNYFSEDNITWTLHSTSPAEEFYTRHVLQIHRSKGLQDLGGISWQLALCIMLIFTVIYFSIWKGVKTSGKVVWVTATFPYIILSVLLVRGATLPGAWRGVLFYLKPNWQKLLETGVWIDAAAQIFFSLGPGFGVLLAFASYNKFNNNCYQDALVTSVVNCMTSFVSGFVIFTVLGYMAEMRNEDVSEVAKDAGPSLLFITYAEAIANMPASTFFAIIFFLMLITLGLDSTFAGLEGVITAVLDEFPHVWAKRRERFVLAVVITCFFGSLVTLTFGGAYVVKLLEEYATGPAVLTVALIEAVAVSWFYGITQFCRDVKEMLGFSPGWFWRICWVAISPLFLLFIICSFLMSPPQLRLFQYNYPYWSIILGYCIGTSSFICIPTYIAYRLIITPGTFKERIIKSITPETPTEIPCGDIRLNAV
Chain of Tyrosine-protein kinase Blk (Homo sapiens) (P51451 2-505 limits assumed): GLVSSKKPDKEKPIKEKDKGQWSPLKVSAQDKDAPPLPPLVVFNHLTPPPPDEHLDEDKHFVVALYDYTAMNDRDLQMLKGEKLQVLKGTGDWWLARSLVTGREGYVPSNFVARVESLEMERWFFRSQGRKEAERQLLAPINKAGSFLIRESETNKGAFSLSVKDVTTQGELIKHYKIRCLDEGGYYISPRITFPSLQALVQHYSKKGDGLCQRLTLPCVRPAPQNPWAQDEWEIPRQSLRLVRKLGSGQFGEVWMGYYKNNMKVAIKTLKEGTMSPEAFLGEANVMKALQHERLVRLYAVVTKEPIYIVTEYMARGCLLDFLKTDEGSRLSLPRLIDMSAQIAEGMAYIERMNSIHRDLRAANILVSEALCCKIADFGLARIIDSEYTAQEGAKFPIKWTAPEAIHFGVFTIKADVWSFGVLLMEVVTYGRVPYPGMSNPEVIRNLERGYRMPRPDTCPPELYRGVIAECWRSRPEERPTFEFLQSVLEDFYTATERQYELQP
Chain of Neuropeptide Y receptor type 2 (Homo sapiens) (P49146 whole entry): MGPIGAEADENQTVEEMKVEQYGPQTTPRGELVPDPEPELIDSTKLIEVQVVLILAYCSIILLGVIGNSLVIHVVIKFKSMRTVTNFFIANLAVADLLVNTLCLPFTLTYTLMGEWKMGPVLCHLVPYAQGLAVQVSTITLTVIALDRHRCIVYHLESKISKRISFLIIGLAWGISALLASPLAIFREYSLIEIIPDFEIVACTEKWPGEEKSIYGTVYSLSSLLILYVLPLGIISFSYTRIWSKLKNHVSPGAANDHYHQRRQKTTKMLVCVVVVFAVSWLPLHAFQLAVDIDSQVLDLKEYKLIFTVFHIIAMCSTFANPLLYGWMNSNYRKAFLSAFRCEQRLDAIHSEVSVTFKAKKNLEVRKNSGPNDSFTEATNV
Chain of Cyclin-dependent kinase 9 (Homo sapiens) (P50750 whole entry): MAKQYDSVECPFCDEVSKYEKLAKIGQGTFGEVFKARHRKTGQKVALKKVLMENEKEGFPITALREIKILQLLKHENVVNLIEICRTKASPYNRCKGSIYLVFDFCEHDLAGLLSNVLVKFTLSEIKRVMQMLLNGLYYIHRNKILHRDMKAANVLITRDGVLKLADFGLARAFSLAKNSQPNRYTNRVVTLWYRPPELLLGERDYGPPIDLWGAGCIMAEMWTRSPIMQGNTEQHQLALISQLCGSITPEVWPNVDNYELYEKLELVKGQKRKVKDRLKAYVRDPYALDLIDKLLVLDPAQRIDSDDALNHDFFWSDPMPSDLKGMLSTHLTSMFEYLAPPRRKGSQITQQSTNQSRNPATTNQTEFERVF
Chain of Dual specificity tyrosine-phosphorylation-regulated kinase 3 (Homo sapiens) (O43781 whole entry): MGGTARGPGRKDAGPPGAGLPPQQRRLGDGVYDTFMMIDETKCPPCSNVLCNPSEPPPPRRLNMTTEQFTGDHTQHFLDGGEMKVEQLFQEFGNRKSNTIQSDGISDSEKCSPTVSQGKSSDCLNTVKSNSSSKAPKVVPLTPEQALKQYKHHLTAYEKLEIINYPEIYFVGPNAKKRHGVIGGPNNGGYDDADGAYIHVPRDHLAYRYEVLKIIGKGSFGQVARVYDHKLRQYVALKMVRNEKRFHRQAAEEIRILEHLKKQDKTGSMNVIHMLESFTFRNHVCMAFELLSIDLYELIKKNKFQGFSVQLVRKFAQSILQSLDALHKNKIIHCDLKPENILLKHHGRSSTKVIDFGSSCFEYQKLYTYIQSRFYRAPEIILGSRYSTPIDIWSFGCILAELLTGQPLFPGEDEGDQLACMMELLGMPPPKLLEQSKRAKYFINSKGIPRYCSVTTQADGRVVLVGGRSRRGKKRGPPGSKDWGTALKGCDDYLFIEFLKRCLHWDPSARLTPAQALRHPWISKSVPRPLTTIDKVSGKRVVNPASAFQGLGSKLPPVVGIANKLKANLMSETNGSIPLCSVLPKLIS
Chain of Caspase-3 (Homo sapiens) (P42574 29-175 limits assumed): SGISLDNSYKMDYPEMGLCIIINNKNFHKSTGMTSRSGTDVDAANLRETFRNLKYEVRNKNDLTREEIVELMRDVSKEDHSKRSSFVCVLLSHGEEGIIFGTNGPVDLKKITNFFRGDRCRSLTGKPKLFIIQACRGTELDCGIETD
Chain of Caspase-3 (Homo sapiens) (P42574 176-277 limits assumed): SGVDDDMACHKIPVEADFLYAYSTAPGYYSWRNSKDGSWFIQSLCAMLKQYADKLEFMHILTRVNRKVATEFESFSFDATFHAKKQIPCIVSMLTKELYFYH
Chain of RAC-alpha serine/threonine-protein kinase (Homo sapiens) (P31749 whole entry): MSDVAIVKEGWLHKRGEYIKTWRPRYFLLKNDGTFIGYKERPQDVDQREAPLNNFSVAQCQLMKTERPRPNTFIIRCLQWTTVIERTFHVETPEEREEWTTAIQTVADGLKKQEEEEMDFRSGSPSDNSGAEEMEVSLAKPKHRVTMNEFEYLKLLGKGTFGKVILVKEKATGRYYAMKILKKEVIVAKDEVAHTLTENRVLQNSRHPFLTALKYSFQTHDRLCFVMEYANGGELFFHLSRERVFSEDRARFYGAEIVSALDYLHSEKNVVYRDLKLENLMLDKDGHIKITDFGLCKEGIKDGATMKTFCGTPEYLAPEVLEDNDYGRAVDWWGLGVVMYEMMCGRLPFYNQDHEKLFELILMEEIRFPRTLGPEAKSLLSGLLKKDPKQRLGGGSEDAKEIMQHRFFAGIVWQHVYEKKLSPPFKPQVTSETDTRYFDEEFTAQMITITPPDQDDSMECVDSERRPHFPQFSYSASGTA
Chain of MAP kinase-interacting serine/threonine-protein kinase 1 (Homo sapiens) (Q9BUB5 whole entry, looked up): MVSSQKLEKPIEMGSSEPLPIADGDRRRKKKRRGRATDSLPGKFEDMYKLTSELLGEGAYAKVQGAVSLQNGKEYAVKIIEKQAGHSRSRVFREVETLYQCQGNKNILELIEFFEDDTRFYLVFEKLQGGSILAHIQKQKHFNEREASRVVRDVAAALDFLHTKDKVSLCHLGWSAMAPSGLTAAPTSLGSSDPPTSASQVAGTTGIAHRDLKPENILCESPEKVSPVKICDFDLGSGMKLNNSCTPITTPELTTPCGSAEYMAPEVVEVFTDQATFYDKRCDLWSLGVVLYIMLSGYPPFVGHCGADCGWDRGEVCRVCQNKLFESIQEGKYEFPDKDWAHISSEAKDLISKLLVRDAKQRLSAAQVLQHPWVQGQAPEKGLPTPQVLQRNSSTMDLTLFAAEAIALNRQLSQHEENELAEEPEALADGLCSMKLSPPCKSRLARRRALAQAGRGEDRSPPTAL
Chain of Proto-oncogene tyrosine-protein kinase Src (Homo sapiens) (P12931 2-536 limits assumed): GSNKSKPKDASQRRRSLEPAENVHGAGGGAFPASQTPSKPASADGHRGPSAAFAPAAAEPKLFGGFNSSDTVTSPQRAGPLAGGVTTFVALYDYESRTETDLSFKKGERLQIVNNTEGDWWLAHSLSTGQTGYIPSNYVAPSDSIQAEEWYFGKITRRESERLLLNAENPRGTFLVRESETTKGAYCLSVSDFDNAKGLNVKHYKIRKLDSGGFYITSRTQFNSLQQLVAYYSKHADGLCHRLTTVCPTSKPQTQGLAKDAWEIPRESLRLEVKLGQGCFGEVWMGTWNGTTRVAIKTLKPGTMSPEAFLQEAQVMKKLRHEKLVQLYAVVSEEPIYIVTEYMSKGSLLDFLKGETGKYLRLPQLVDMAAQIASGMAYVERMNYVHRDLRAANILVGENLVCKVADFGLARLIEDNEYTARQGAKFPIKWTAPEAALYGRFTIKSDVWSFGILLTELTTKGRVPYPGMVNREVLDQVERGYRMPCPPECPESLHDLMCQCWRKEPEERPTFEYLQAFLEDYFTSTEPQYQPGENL

CN(C)C(=O)Cn1cc(-c2nc(C3(c4ccc(-c5cnc(N)nc5)cc4)CC3)no2)cn1 [BI 0153]
inactive: residual activity [1] 89%

CN(C)C(=O)Cn1cc(-c2nc([C@@](C)(c3ccc(-c4cnc(N)nc4)cc3)C3CC3)no2)cn1 [BI 665915]
inactive: residual activity [2] 86% | residual activity (Caspase-3 (Homo sapiens)) 98% | residual activity [3] 96% | residual activity (Homo sapiens) 100% | residual activity [4] 101% | residual activity [5] 106% | residual activity [7] 80% | residual activity [8] 97% | residual activity [9] 80% | residual activity [10] 99% | residual activity [11] 88.5% | residual activity [12] 97% | residual activity [13] 102% | residual activity [14] 102% | residual activity [15] 99% | residual activity [16] 102% | residual activity [17] 104% | residual activity [18] 99.5% | residual activity [19] 100% | residual activity [20] 89% | residual activity [21] 99% | residual activity [22] 89.5% | residual activity [23] 90% | residual activity [24] 102% | residual activity [25] 100% | residual activity [26] 97.5% | residual activity [27] 85% | residual activity [28] 98% | residual activity [29] 97%
98% (not active): activity at 10 µM [6]
